# Reference: patent US20050004044A1, “Use of orsaponin [3beta, 16beta, 17 alpha-trihydroxycholost-5-en-22-one 16-0-(2-0-4-methoxybenzoyl-beta-D-xylopyranosyl)-(1->3)-(2-0-acetyl-alpha-L-arabinopyranoside)] or OSW-1 and its derivatives for cancer therapeutics” (priority 2003, published 2005)
# Legend:
# Raji cells (lymphoma) = assay: MTT cell growth inhibition, Raji; assay type: cell-based, human; details: Homo sapiens, 72 h
# Protocol: FIG. 2. Effect of Orsaponin (OSW-1) on cell growth in two human cancer cell lines including a leukemia and a lymphoma cell line. HL-60 (leukemia) and Raji cells (lymphoma) in exponentially growing phase were treated with the indicated concentrations of OSW-1 for 72 hours. Cell growth inhibition was measured by MTT assay.
# (§1) Cells and Cell Lines. Various cancer cell lines were used including the human leukemia cell lines HL-60 and ML-1 cells; human lymphoma cell line Raji; human pancreatic cancer cells AsPC-1; and human ovarian cancer cells SKOV3; human colon cancer cells HCT116; as well as isolated CLL cells from patients; and lymphocytes from normal donors. Cells were grown and maintained as per protocols known in the art using appropriate cell culture media and supplements.
# (§2) 1. MTT Assays. For these assays either cancer cell lines were used. […] After the indicated number of days (usually 3 days or 72 hours) of exposure to OSW-1, cell survival was assessed by the addition of the MTT dye to the wells. […] Survival of cells under orsaponin treatment was evaluated as a percentage of control cell growth. […]
# (§3) Anticancer activities of Orsaponin and 17-deoxyorsaponin were examined in human leukemia cells (ML-1) and human lymphoma cells (Raji). Cells were incubated with various concentrations of Orsaponin and 17-deoxyorsaponin for 72 h, and cell growth inhibition was measured by MTT assay.
# [1] = test system: HCT116 p53−/− colon cancer cells; assay: MTT cell growth inhibition, HCT116 p53−/−; assay type: cell-based; details: Homo sapiens, HCT-116, 72 h
# Protocol: (§4) 1. MTT Assays. For these assays either cancer cell lines were used. Alternatively, mononuclear cells from peripheral blood samples of CLL patients or normal donors were separated by Ficoll Hipaque fractionation and resuspended in DMEM complete medium. Malignant cells from various human cell lines (usually at 5×10^4 cells/ml) or mononuclear cells from peripheral blood of leukemia patients and healthy donors (1×10^6 cells/ml) were incubated in either αMEM or RPMI 1640 with or without various concentrations of OSW-1 in the range of 0-10 nM. Each experimental condition was done in triplicate. After the indicated number of days (usually 3 days or 72 hours) of exposure to OSW-1, cell survival was assessed by the addition of the MTT dye to the wells. The MTT dye changes its color depending on the presence of live cells in the well. Survival of cells under orsaponin treatment was evaluated as a percentage of control cell growth. Alternatively, one can also use the dye trypan-blue which penetrates dead cells thereby allowing one to count live cells under the microscope and estimating percentage survival.
# (§5) Anticancer activity of 17-deoxyorsaponin in human colon cancer cells was examined. HCT116 p53+/+ and HCT116 p53−/− human colon cancer cells were incubated with the various concentrations of 17-deoxyorsaponin for 72 h. Cell growth inhibition was measured by MTT assay.
# [2] = test system: pancreatic cancer AsPC-1 cells; assay: MTT cell growth inhibition, AsPC-1; assay type: cell-based, human; details: Homo sapiens, ASPC1, 72 h, AsPC-1, 72 h
# Protocol: FIG. 3. Effect of Orsaponin (OSW-1) on cell growth in human pancreatic cancer cells. Human pancreatic cancer AsPC-1 cells were treated with the indicated concentrations of OSW-1 for 72 h or 96 h. Cell growth inhibition was measured by MTT assay.
# FIG. 4. The anticancer activity of Orsaponin (OSW-1) is not affected by NFκB expression in pancreatic cancer cells. Human pancreatic cancer cells AsPC-1 with constitutive activation of NFκB or inactivation of NFκB by dominant negative IκBα (AsPC-1/IκBα-ND) were treated with the indicated concentrations of OSW-1 for 72 h. Cell growth inhibition was measured by MTT assay.
# as §1, with “Cells were grown and maintained as per protocols known in the art using appropriate cell culture media and supplements.” left out
# 1. […] After the indicated number of days (usually 3 days or 72 hours) of exposure to OSW-1, cell survival was assessed by the addition of the MTT dye to the wells. […] Survival of cells under orsaponin treatment was evaluated as a percentage of control cell growth. […]
# (§6) The effect of Orsaponin and 17-deoxyorsaponin in pancreatic cancer cells was also assessed. […] Cell growth inhibition was measured by MTT assay.
# [3] = test system: malignant glioma U87-MG cells; assay: MTT cell growth inhibition, U87-MG glioma; assay type: cell-based, human; details: U87-MG vs normal human astrocytes
# Protocol: as §4
# To test the therapeutic selectivity of Orsaponin and 17-deoxyorsaponin, their effect on human brain tumor cells (U87 malignant glioma) and normal human astrocytes were compared. The normal human astrocytes were previously immortalized by transfection with hTER to allow a long-term culture in vitro. The antiproliferative effect of Orsaponin in human malignant glioma cells (U87-MG) and normal human astrocytes was examined. Cells were incubated with various concentrations of Orsaponin for 72 h. Cell growth inhibition was measured by MTT assay (FIG. 21).
# [4] = test system: pancreatic cancer (Panco-2) cells; assay: MTT cell growth inhibition, Panco-2; assay type: cell-based; details: Mus musculus, Panco-2, 72 h
# Protocol: as §4, §6
# [5] = test system: ovarian cancer SKOV3 cells; assay: MTT cell growth inhibition, SKOV3; assay type: cell-based; details: Homo sapiens, SK-OV-3, SKOV3, 72 h
# Protocol: FIG. 5. Effect of Orsaponin (OSW-1) on cell growth in human ovarian cancer cells (SKOV3). Human ovarian cancer SKOV3 cells were treated with the indicated concentrations of OSW-1 for 72 h. Cell growth inhibition was measured by the MTT assay. The IC50 value is approximately 0.2 nM under the experimental conditions.
# as §2, with “used. Alternatively, mononuclear cells from peripheral blood samples of CLL patients or normal donors were separated by Ficoll Hipaque fractionation and resuspended in DMEM complete medium.” for “used.”
# OSW-1 Inhibits Growth of Ovarian Cancer Cells. […] Human ovarian cancer SKOV3 cells were treated with 0-10 nM OSW-1 for 72 h and cell growth inhibition was measured by the MTT assay.
# The effect of 17-deoxyorsaponin in human ovarian cancer cells was determined. […] Cell growth inhibition was measured by MTT assay (FIG. 17). […] ML-1 leukemia cells were incubated with various concentrations of 17-deoxyorsaponin for 72 h and cell growth inhibition was measured using the MTT assay (FIG. 18).
# ML-1 leukemia cells = assay: MTT cell growth inhibition, ML-1; assay type: cell-based, human; details: ML-1, 72 h
# Protocol: as §4, §3
# The effect of 17-deoxyorsaponin in human ovarian cancer cells was determined. SKOV3 ovarian cancer cells were incubated with various concentrations of 17-deoxyorsaponin for 72 h. Cell growth inhibition was measured by MTT assay (FIG. 17). […] The effect of 17-deoxyorsaponin in human acute myeloid leukemia cells was also examined. ML-1 leukemia cells were incubated with various concentrations of 17-deoxyorsaponin for 72 h and cell growth inhibition was measured using the MTT assay (FIG. 18).
# [6] = test system: HCT116 p53+/+ colon cancer cells; assay: MTT cell growth inhibition, HCT116 p53+/+; assay type: cell-based; details: Homo sapiens, HCT-116, 72 h
# Protocol: as §4, §5
# primary CLL cells = assay: cells; assay type: cell-based; details: Homo sapiens, CLL cell, CLL cells, median of 11 patient samples; read-out: IC50 (nM), Median
# Protocol: FIG. 7. Effect of Orsaponin (OSW-1) on cell survival in primary human leukemia cells isolated from patients with chronic lymphocytic leukemia (CLL). Freshly isolated primary CLL cells were incubated with the indicated concentrations of OSW-1 for 72 hours in vitro. Cell viability was measured by MTT assay. […] Data from representative experiments with CLL cells from three different patients are shown. A total of 23 CLL blood samples were tested for sensitivity to OSW-1 in the same fashion.
# as §4
# Reduction of Cell Viability in CLL-Patient-Derived Cells. […] Freshly isolated primary CLL cells were incubated with the 0-100 nM OSW-1 for 72 hours in vitro and cell viability was measured by the MTT assay.
# Cytotoxic activity of 17-deoxyorsaponin was also assessed in a number of patient samples. Primary human leukemia cells isolated from 11 patients with chronic lymphocytic leukemia (CLL) were analyzed for cytotoxic activity of 17-deoxyorsaponin. […]
structure (smiles),measurement,setting,value
COc1ccc(C(=O)OC2C(OC3C(O)COC(O[C@H]4C[C@H]5[C@@H]6CC=C7C[C@@H](O)CC[C@]7(C)[C@H]6CC[C@]5(C)[C@H]4[C@H](C)C(=O)CCC(C)C)C3OC(C)=O)OCC(O)C2O)cc1 (stereo partly shown) [17-deoxyorsaponin],IC50,Raji cells (lymphoma),< 0.1 nM
same,IC50,[1],~1 nM
same,IC50,[2],1 nM
same,sensitivity of glioma cells compared with normal astrocytes,[3],more sensitive
same,IC50,[4],0.1 nM
same,IC50,[5],~0.1 nM
same,IC50,"ML-1 leukemia cells; Homo sapiens, 72 h",< 0.1 nM
same,IC50,ML-1 leukemia cells,~0.2 nM
same,IC50,[6],~1 nM
same,IC50,primary CLL cells,0.37 nM
